# Results published in patent publication US8796256B2 (Janssen Pharmaceutica NV, priority 2010, dated 2014).
# Target: T1, ERR1 (also known as ERR-α or ERR-1) (Homo sapiens, UniProt P11474)
# T1 sequence (P11474 193-421 limits assumed): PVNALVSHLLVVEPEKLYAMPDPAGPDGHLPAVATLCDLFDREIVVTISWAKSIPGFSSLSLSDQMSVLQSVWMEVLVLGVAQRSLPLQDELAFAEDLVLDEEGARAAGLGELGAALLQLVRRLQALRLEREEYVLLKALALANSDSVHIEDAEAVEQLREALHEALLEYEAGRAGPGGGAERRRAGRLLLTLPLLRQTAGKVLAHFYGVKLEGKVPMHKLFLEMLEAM
# Assay: TR-FRET assay (disruption of co-activator peptide binding to ERR1 LBD)
# Format: biochemical
# Details: 6 nM 6His-ERR1LBD, 6 nM GST-SRC-2 peptide; average of 3 independent experiments
# How it was run: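 His-tagged ERR1 ligand-binding domain and GST-labelled SRC-2 peptide, each 6 nM, equilibrated at 25° C for 4-18 h in Tris pH 8/Hepes/KCl/DTT/delipidated BSA buffer. Compound-induced loss of co-activator binding read as Eu cryptate→XL665 energy transfer; values from hyperbolic curve fits averaged over 3 independent runs.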
row,SMILES,EC50 [nM]
1,"CN(CCN1C(=O)S/C(=C\c2ccc3c(cnn3Cc3ccc(Cl)cc3C(F)(F)F)c2)C1=O)S(=O)(=O)N1CCCC1 [Compound 396, N-{2-[(5Z)-5-({1-[4-Chloro-2-(trifluoromethyl)benzyl]-1H-indazol-5-yl}methylidene)-2,4-dioxo-1,3-thiazolidin-3-yl]ethyl}-N-methylpyrrolidine-1-sulfonamide]",112
2,"CS(=O)(=O)CCN1C(=O)S/C(=C\c2ccc3c(cnn3Cc3ccc(Cl)cc3C(F)(F)F)c2)C1=O [Compound 129, (5Z)-5-({1-[4-Chloro-2-(trifluoromethyl)benzyl]-1H-indazol-5-yl}methylidene)-3-[2-(methylsulfonyl)ethyl]-1,3-thiazolidine-2,4-dione]",18
3,"CN(C)CCCN1C(=O)S/C(=C\c2ccc3c(ccn3Cc3ccc(C(F)(F)F)cc3C(F)(F)F)c2)C1=O [Compound 239, (5Z)-5-[(1-{[2,4-Bis(trifluoromethyl)phenyl]methyl}-1H-indol-5-yl)methylidene]-3-[3-(dimethylamino)-propyl]-1,3-thiazolidine-2,4-dione]",100
4,"CS(=O)(=O)NN1C(=O)S/C(=C\c2ccc3c(cnn3Cc3ccc(C#N)cc3C(F)(F)F)c2)C1=O [Compound 362, N-[(5Z)-5-({1-[4-Cyano-2-(trifluoromethyl)benzyl]-1H-indazol-5-yl}methylidene)-2,4-dioxo-1,3-thiazolidin-3-yl]methanesulfonamide]",308
5,"O=C(CN1C(=O)S/C(=C\c2ccc3c(c2)nnn3Cc2ccc(Cl)cc2C(F)(F)F)C1=O)NS(=O)(=O)N1CCCC1 [Compound 268, 2-[(5Z)-5-({1-[4-Chloro-2-(trifluoromethyl)benzyl]-1H-benzotriazol-5-yl}methylidene)-2,4-dioxo-1,3-thiazolidin-3-yl]-N-(pyrrolidin-1-ylsulfonyl)acetamide]",46
6,"CCN1CC[C@H](N2C(=O)S/C(=C\c3ccc4c(cnn4Cc4ccc(Cl)cc4C(F)(F)F)c3)C2=O)C1 [Compound 119, (5Z)-5-({1-[4-Chloro-2-(trifluoromethyl)benzyl]-1H-indazol-5-yl}methylidene)-3-[(3S)-1-ethylpyrrolidin-3-yl]-1,3-thiazolidine-2,4-dione]",40
7,"O=C1S/C(=C\c2ccc3c(cnn3Cc3ccc(Cl)cc3C(F)(F)F)c2)C(=O)N1CCN1CCCC(F)C1 (stereo not shown) [Compound 74, (5Z)-5-({1-[4-Chloro-2-(trifluoromethyl)benzyl]-1H-indazol-5-yl}methylidene)-3-[2-(3-fluoropiperidin-1-yl)ethyl]-1,3-thiazolidine-2,4-dione]",110
8,"O=C1S/C(=C\c2ccc3c(cnn3Cc3ccc(Cl)cc3C(F)(F)F)c2)C(=O)N1C[C@@H]1C[C@@H](F)CN1 [Compound 184, (5Z)-5-({1-[4-Chloro-2-(trifluoromethyl)benzyl]-1H-indazol-5-yl}methylidene)-3-{[(2S,4R)-4-fluoropyrrolidin-2-yl]methyl}-1,3-thiazolidine-2,4-dione]",140
9,"CN(C)CCN1C(=O)S/C(=C\c2ccc3c(cnn3Cc3ccc(C(F)(F)F)cc3C(F)(F)F)c2)C1=O [Compound 7, (5Z)-5-[(1-{[2,4-Bis(trifluoromethyl)-phenyl]methyl}-1 H-indazol-5-yl)methylidene]-3-[2-(dimethylamino)-ethyl]-1,3-thiazolidine-2,4-dione]",33
10,"O=C(O)c1cccc(CN2C(=O)S/C(=C\c3ccc4c(cnn4Cc4ccc(Cl)cc4C(F)(F)F)c3)C2=O)c1 [Compound 378, 3-{[(5Z)-5-({1-[4-Chloro-2-(trifluoromethyl)benzyl]-1H-indazol-5-yl}methylidene)-2,4-dioxo-1,3-thiazolidin-3-yl]methyl}benzoic acid]",66
11,"Cc1noc(C)c1S(=O)(=O)NCCN1C(=O)S/C(=C\c2ccc3c(cnn3Cc3ccc(Cl)cc3C(F)(F)F)c2)C1=O [Compound 419, N-{2-[(5Z)-5-({1-[4-Chloro-2-(trifluoromethyl)benzyl]-1H-indazol-5-yl}methylidene)-2,4-dioxo-1,3-thiazolidin-3-yl]ethyl}-3,5-dimethylisoxazole-4-sulfonamide]",115
12,"CC(C)N1CC[C@@H](N2C(=O)S/C(=C\c3ccc4c(cnn4Cc4ccc(Cl)cc4C(F)(F)F)c3)C2=O)[C@H](F)C1 [Compound 387, (5Z)-5-({1-[4-Chloro-2-(trifluoromethyl)benzyl]-1H-indazol-5-yl}methylidene)-3-[(3R,4R)-3-fluoro-1-(1-methylethyl)piperidin-4-yl]-1,3-thiazolidine-2,4-dione]",123
13,"O=C1S/C(=C\c2ccc3c(cnn3Cc3ccc(Cl)cc3C(F)(F)F)c2)C(=O)N1OCCN1CCCC1 [Compound 289, (5Z)-5-({1-[4-Chloro-2-(trifluoromethyl)benzyl]-1H-indazol-5-yl}methylidene)-3-(2-pyrrolidin-1-ylethoxy)-1,3-thiazolidine-2,4-dione]",17

# Continued by falling EC50, values first:
row,EC50 [nM],SMILES
1,527,"O=C1S/C(=C\c2ccc3c(cnn3Cc3ccc(Cl)cc3C(F)(F)F)c2)C(=O)N1CCN1CCC(C(O)CO)CC1 (stereo not shown) [Compound 283, (5Z)-5-({1-[4-Chloro-2-(trifluoromethyl)benzyl]-1H-indazol-5-yl}methylidene)-3-{2-[4-(1,2-dihydroxyethyl)piperidin-1-yl]ethyl}-1,3-thiazolidine-2,4-dione]"
2,185,"O=C1S/C(=C\c2ccc3c(cnn3Cc3ccc(Cl)cc3C(F)(F)F)c2)C(=O)N1CCN1CC[C@H](F)C1 [Compound 2, (5Z)-5-({1-[4-Chloro-2-(trifluoromethyl)benzyl]-1H-indazol-5-yl}methylidene)-3-{2-[(3S)-3-fluoro-pyrrolidin-1-yl]ethyl}-1,3-thiazolidine-2,4-dione]"
3,110,"CCN1CC[C@@H](N2C(=O)S/C(=C\c3ccc4c(cnn4Cc4ccc(Cl)cc4C(F)(F)F)c3)C2=O)[C@@H](F)C1 (relative stereo) [Compound 332, (5Z)-5-({1-[4-Chloro-2-(trifluoromethyl)benzyl]-1H-indazol-5-yl}methylidene)-3-[cis-1-ethyl-3-fluoropiperidin-4-yl]-1,3-thiazolidine-2,4-dione]"
4,95,"COc1nn(Cc2ccc(Cl)cc2C(F)(F)F)c2ccc(/C=C3\SC(=O)N(C4CCNCC4)C3=O)cc12 [Compound 29, (5Z)-5-({1-[4-Chloro-2-(trifluoromethyl)benzyl]-3-methoxy-1H-indazol-5-yl}methylidene)-3-piperidin-4-yl-1,3-thiazolidine-2,4-dione]"
5,89,"Cc1nc(CN2C(=O)S/C(=C\c3ccc4c(cnn4Cc4ccc(Cl)cc4C(F)(F)F)c3)C2=O)n[nH]1 [Compound 86, (5Z)-5-({1-[4-Chloro-2-(trifluoromethyl)benzyl]-1H-indazol-5-yl}methylidene)-3-[(5-methyl-1H-1,2,4-triazol-3-yl)methyl]-1,3-thiazolidine-2,4-dione]"
6,74,"CN1CCC(C(=O)O)(N2C(=O)S/C(=C\c3ccc4c(cnn4Cc4ccc(Cl)cc4C(F)(F)F)c3)C2=O)CC1 [Compound 220, 4-[(5Z)-5-({1-[4-Chloro-2-(trifluoromethyl)benzyl]-1H-indazol-5-yl}methylidene)-2,4-dioxo-1,3-thiazolidin-3-yl]-1-methylpiperidine-4-carboxylic acid]"
7,48,"Cn1cnc(CN2C(=O)S/C(=C\c3ccc4c(cnn4Cc4ccc(Cl)cc4C(F)(F)F)c3)C2=O)c1 [Compound 402, (5Z)-5-({1-[4-Chloro-2-(trifluoromethyl)benzyl]-1H-indazol-5-yl}methylidene)-3-[(1-methyl-1H-imidazol-4-yl)methyl]-1,3-thiazolidine-2,4-dione]"
8,43,"O=C1S/C(=C\c2ccc3c(cnn3Cc3ccc(Cl)cc3C(F)(F)F)c2)C(=O)N1CCN1CCOCC1 [Compound 3, (5Z)-5-({1-[4-Chloro-2-(trifluoromethyl)benzyl]-1H-indazol-5-yl}methylidene)-3-(2-morpholin-4-ylethyl)-1,3-thiazolidine-2,4-dione]"
9,38,"CN1CCN(N2C(=O)S/C(=C\c3ccc4c(cnn4Cc4ccc(C(F)(F)F)cc4C(F)(F)F)c3)C2=O)CC1 [Compound 350, (5Z)-5-({1-[2,4-Bis(trifluoromethyl)benzyl]-1H-indazol-5-yl}methylidene)-3-(4-methylpiperazin-1-yl)-1,3-thiazolidine-2,4-dione]"
10,30,"O=C(O)CN1CCC[C@H]1CN1C(=O)S/C(=C\c2ccc3c(cnn3Cc3ccc(Cl)cc3C(F)(F)F)c2)C1=O [Compound 151, [(2S)-2-{[(5Z)-5-({1-[4-Chloro-2-(trifluoromethyl)benzyl]-1H-indazol-5-yl}methylidene)-2,4-dioxo-1,3-thiazolidin-3-yl]methyl}pyrrolidin-1-yl]acetic acid]"
11,29,"COC(=O)CN1C(=O)S/C(=C\c2ccc3c(cnn3[C@H]3CCc4cc(Cl)ccc43)c2)C1=O [Compound 171, Methyl [(5Z)-5-({1-[(1S)-5-chloro-2,3-dihydro-1H-inden-1-yl]-1H-indazol-5-yl}methylidene)-2,4-dioxo-1,3-thiazolidin-3-yl]acetate]"
12,21,"CN1C[C@@H](F)[C@H](N2C(=O)S/C(=C\c3ccc4c(cnn4Cc4ccc(Cl)cc4C(F)(F)F)c3)C2=O)C1 (relative stereo) [Compound 319, (5Z)-5-({1-[4-Chloro-2-(trifluoromethyl)benzyl]-1H-indazol-5-yl}methylidene)-3-[trans-4-fluoro-1-methylpyrrolidin-3-yl]-1,3-thiazolidine-2,4-dione]"
